Patent US20030158160A1, “Pharmaceutical combination of an anti-androgen and tamoxifen for providing an anti-androgenic effect and aromatase inhibition” (priority 2000, published 2003)

Experiments:
humans = conditions: single agent therapy; cited from earlier work
men = conditions: cited from earlier work
healthy male volunteers = experiment: Human clinical trial: free testosterone levels after CASODEX together with NOLVADEX or CASODEX alone; type: in vivo; conditions: for Free testosterone concentration, gmean: n=7
Protocol: The following clinical trial was performed to determine the effect of the administration of CASODEX™ together with NOLVADEX™ on free testosterone levels in healthy male volunteers over a 6 week period.
Key Inclusion Criteria: Male, aged 65 years or above showing no clinically significant abnormalities in routine haematological and biochemical tests and having endocrinology and prostate specific antigen (PSA) results within normal limits.
Key Exclusion Criteria: Previous inclusion in a clinical trial using CASODEX™; concurrent treatment with any drugs with the exception of paracetomol; history or presence of any testicular abnormality; history or presence of gastrointestinal, hepatic or renal disease, or other condition known to interfere with the absorption, distribution, metabolism or excretion of drugs; a clinically significant illness within 2 weeks of trial commencement; definite or suspected personal or family history of significant adverse drug reactions or any hypersensitivity to CASODEX™ or NOLVADEX™; treatment within the previous 3 months with any drugs known to have a well-defined potential for hepatotoxicity or hepatic interaction.
Dosage: The CASODEX™ was administered daily at a dose of 150 mg and the NOLVADEX™ was administered daily at a dose of 20 mg. All treatments were in tablet form and taken once daily. Daily treatment with CASODEX™ plus NOLVADEX™ was for 6 weeks, this period being selected as the minimum time to attain steady-state plasma concentrations for the drugs. Another set of volunteers were administered CASODEX™ alone at a daily dose of 150 mg for 4 weeks. All treatments were in tablet form and taken once daily.
Key Assessment: Free testosterone concentrations were measured during the course of the trial.
Day 1 samples were drawn before dosing, and therefore act as a baseline measurement.

## CC1(C)NC(=O)N(c2ccc([N+](=O)[O-])c(C(F)(F)F)c2)C1=O [nilutamide, 5,5-dimethyl-3-[4-nitro-3-(trifluoromethyl)phenyl]-2,4-imidazolidinedione]
humans
  Change of basal level of circulating testosterone: causes an increase

## CC/C(=C(\c1ccccc1)c1ccc(OCCN(C)C)cc1)c1ccccc1 [tamoxifen, (Z)-2-[p-(1,2-diphenylbut-1-enyl)phenoxy]ethyldimethylamine]
men; 13 normal men, 6 week administration (Spijkstra et al)
  Effect on mean serum testosterone, oestradiol, LH levels, LH pulse frequency and LH pulse amplitude: An increase
men; administration to men (Lewis-Jones et al)
  Effect on basal serum levels of LH, oestradiol and testosterone: elevates
men; intake in adult men (Comhaire et al)
  Effect on testosterone and LH: increase testosterone and LH
men; three months' treatment, normogonadotrophic oligozoospermic men (van Bergeijk et al)
  Effect on basal LH, FSH and testosterone levels: stimulated

## CC(O)(CS(=O)(=O)c1ccc(F)cc1)C(=O)Nc1ccc(C#N)c(C(F)(F)F)c1 (stereo not drawn) [CASODEX™, bicalutamide]
Healthy male volunteers; Day 1, sample drawn before dosing (baseline)
  Free testosterone concentration, gmean: 0.048 nmol/L
Healthy male volunteers; Day 29, CASODEX alone 150 mg daily
  Free testosterone, ratio to Day 1: 1.58
Healthy male volunteers; Day 29, CASODEX alone 150 mg daily for 4 weeks
  Free testosterone concentration, gmean: 0.076 nmol/L
Healthy male volunteers; end of treatment period (4 weeks CASODEX alone; 6 weeks combination)
  Increase in mean free testosterone concentration by the end of the treatment period: 58%
